According to article PMC9455918, “Quinolizidines as Novel SARS-CoV-2 Entry Inhibitors” (International Journal of Molecular Sciences, 2022):
Where “and” joins values, the source holds several entries; their conditions need not be identical. Equal entries are not always repeated. Where two headings read alike, the source gives them in different places.

Assays:
[1] = tested on: D614G spike-pseudotyped virus; format: cell-based, SARS-CoV-2
[2] = tested on: Omicron BA.1 spike-pseudotyped virus; test: microbe, parasite or virus in culture; format: cell-based, SARS-CoV-2
[3] = 293T-ACE2 cells, 3 days, luciferase reporter, mean ± SD of three tests, Inactive = CC50/IC50 ratio < 5

O=C(NCCCCCCN1CCCC2CC3CC(CN4CCCCC34)C21)c1c(F)cc(Br)cc1F (centres unmarked) [Compound 1] gave an IC50 [1] of 4700 ± 760 nM.
C1=C2CCCN[C@H]2[C@@H]2C[C@H]1[C@H]1CCCCN1C2 [Aloperine, aloperine, reference compound] was tested, and the IC50 [1] was 11500 ± 2300 nM.
In the case of C1=C2CCCN(CCCCNCc3ccccc3)C2C2CC1C1CCCCN1C2 (centres unmarked) [Compound 5], the “Fold more potent than aloperine against D614G spike-pseudotyped virus” value [1] is reported as “approximately 22 fold”, the “Fold more potent than chloroquine against D614G spike-pseudotyped virus” value [1] is reported as roughly 5 fold and the IC50 [1] is reported as 500 nM and 530 nM. The “IC50, D614G spike-pseudotyped virus” value [1, 3] was “sub-µM potency”, the “Fold less sensitive, Omicron variants” value [2] was “approximately 1.5 fold” and the IC50 ([2]; Severe acute respiratory syndrome coronavirus 2, 293T/ACE2, read-out: IC50, Omicron BA.1 spike-pseudotyped virus) was 760 ± 220 nM.
With COc1ccc(C(=O)NCCCCN2CCCC3=CC4CC(CN5CCCCC45)C32)cc1 (centres unmarked) [Compound 6] the IC50 [1] was 11900 ± 2100 nM.
With Fc1ccc(CNCCCCN2CCCC3=CC4CC(CN5CCCCC45)C32)cc1 (centres unmarked) [Compound 9] the IC50 [1] was 610 ± 180 nM.
In the case of O=C(NCCCCCCCC(=O)N1CCCC2=CC3CC(CN4CCCCC34)C21)c1ccc(OC(F)(F)F)cc1 (centres unmarked) [Compound 8], the IC50 [1] is reported as 17500 ± 2300 nM and the “IC50, D614G spike-pseudotyped virus” value [1, 3] is reported as “weak inhibitor”.
With O=C(Cc1ccc(S(=O)(=O)C(F)(F)F)cc1)NCCCCN1CCCC2=CC3CC(CN4CCCCC34)C21 (centres unmarked) [Compound 3] the IC50 [1] was 3800 ± 680 nM.
Molecule CCN(CC)CCCC(C)Nc1ccnc2cc(Cl)ccc12 (centres unmarked) [Chloroquine diphosphate, reference compound] has an IC50 [1] of 2300 ± 3600 nM.
CCOC(=O)[C@H]1O[C@@H]1C(=O)N[C@@H](CC(C)C)C(=O)NCCC(C)C [Compound E64D, E64D, reference compound] showed an IC50 [1, 3] of 480 ± 110 nM and an IC50 ([2]; read-out: IC50, Omicron BA.1 spike-pseudotyped virus) of 360 ± 76 nM.
In the case of C1=C2CCCN(CCCCCNCc3ccccc3)C2C2CC1C1CCCCN1C2 (centres unmarked) [Compound 4], the IC50 [1] is reported as 860 ± 1500 nM and the “IC50, D614G spike-pseudotyped virus” value [1, 3] is reported as “sub-µM potency”.
Work on CC(C)(C)c1ccc(C(=O)NCCCCCCN2CCCC3=CC4CC(CN5CCCCC45)C32)cc1 (centres unmarked) [Compound 7] yielded an IC50 [1] of 3700 ± 870 nM.
For O=C(NCCN1CCCC2=CC3CC(CN4CCCCC34)C21)c1ccccc1F (centres unmarked) [Compound 2], the “IC50, D614G spike-pseudotyped virus” value [1] was “Inactive ^8”.
